Molecular target: T1, recombinant human Cox-2 (Homo sapiens, UniProt P35354)
T1 construct: made in house; host or cells: baculovirus/Sf9 insect cells (microsomes)
T1 sequence (P35354 18-604): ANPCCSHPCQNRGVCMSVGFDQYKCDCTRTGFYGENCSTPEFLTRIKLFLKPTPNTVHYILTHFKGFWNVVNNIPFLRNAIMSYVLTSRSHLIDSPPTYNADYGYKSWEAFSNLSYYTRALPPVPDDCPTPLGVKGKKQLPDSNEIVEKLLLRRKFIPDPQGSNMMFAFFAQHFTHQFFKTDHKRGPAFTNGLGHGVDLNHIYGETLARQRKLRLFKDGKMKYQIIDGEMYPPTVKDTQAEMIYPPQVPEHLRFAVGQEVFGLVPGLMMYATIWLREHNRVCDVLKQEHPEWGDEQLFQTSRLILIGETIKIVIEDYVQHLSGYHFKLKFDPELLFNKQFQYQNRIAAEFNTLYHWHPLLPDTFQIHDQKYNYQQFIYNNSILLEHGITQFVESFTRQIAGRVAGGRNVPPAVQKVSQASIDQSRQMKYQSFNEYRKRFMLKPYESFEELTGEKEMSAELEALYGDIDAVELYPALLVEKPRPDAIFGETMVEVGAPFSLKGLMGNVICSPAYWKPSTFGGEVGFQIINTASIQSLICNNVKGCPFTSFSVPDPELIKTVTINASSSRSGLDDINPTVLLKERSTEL
Test: Recombinant human PGHS-2 (Cox-2) enzyme assay, PGE2 by EIA
Format: biochemical
Conditions: at 1000 nM
Protocol: To compare the mean responses of the treatment groups, analysis of variance was applied. Percent inhibition values were determined by comparing the individual treatment mean values to the mean of the control group. Linear regression was used to estimate IC50's/ED50's in appropriate assays.
EIA reagents for prostaglandin determination were purchased from Perseptive Diagnostics, (Cambridge, Mass.). PGE2 levels in lavage fluids were determined after the samples were dried under nitrogen and reconstituted with assay buffer. PGE2 levels in enzyme assays or cell culture media were measured against standards prepared in the same milieu. The immunoassays were conducted as recommended by the manufacturer. The EIA was conducted in 96 well microtiter plates (Nunc Roskilde, Denmark) and optical density was measured using a microplate reader (Vmax, Molecular Devices Corp., Menlo Park, Calif.).
Inhibition of prostaglandin biosynthesis in vitro was evaluated using recombinant human Cox-1 (r-hu Cox1) and Cox-2 (r-hu Cox2) enzyme assays. […] PGE2 production in the presence and absence of the drug was determined by EIA analysis. The EIA was conducted in 96 well microtiter plates (Nunc Roskilde, Denmark) and optical density was measured using a microplate reader (Vmax, Molecular Devices Corp., Menlo Park, Calif.). […] PGE2 levels were measured against standards prepared in the same milieu. […]

Structure (SMILES) | RHUCX2 Cox-2 percent inhibition
CS(=O)(=O)c1ccc(-c2cc(=O)n(CC(F)(F)F)nc2-c2ccc(F)cc2)cc1 [Example 22, 2-(2,2,2-Trifluoroethyl)-5-(4-methylsulfonylphenyl)-6-(4-fluorphenyl)-3(2H)-pyridazinone] | 46 @ 1000%

System: not given
Test: not given
Conditions: not given

Structure (SMILES) | melting point
CS(=O)(=O)c1ccc(-c2cc(=O)n(CC3CCC3)nc2-c2ccc(F)cc2)cc1 [Example 20, 2-(Cyclobutylmethyl)-5-(4-methylsulfonylphenyl)-6-(4-fluorophenyl)-3(2H)-pyridazinone] | 74 to 76 °C
CCn1nc(-c2ccc(F)cc2)c(-c2ccc(S(C)(=O)=O)cc2)cc1=O [Example 9, 2-Ethyl-5-(4-methylsulfonylphenyl)-6-(4-fluorophenyl)-3(2H)-pyridazinone] | 177 to 179 °C
CS(=O)(=O)c1ccc(-c2cc(=O)n(CC3CCCCC3)nc2-c2ccc(F)cc2)cc1 [Example 15, 2-Cyclohexylmethyl-5-(4-methylsulfonylphenyl)-6-(4-fluorophenyl)-3(2H)-pyridazin-one] | 175 to 176 °C
C#CCn1nc(-c2ccc(F)cc2)c(-c2ccc(S(C)(=O)=O)cc2)cc1=O [Example 17, 2-Propargyl-5-(4-methylsulfonylphenyl)-6-(4-fluorophenyl)-3(2H)-pyridazinone] | 168 to 169 °C
CCCCn1nc(-c2ccc(F)cc2)c(-c2ccc(S(C)(=O)=O)cc2)cc1=O [Example 11, 2-(n-Butyl)-5-(4-methylsulfonylphenyl)-6-(4-fluorophenyl)-3(2H)-pyridazinone] | 111 to 113 °C
CCCn1nc(-c2ccc(F)cc2)c(-c2ccc(S(C)(=O)=O)cc2)cc1=O [Example 13, 2-(n-Propyl)-5-(4-methylsulfonylphenyl)-6-(4-fluorophenyl)-3(2H)-pyridazinone] | 155 to 157 °C
CS(=O)(=O)c1ccc(-c2cc(=O)[nH]nc2-c2ccc(F)cc2)cc1 [Example 6, 5-(4-Methylsulfonylphenyl)-6-(4-fluorophenyl)-3(2H)-pyridazinone] | 260 to 262 °C
CS(=O)(=O)c1ccc(-c2cc(=O)n(Cc3ccc(F)cc3)nc2-c2ccc(F)cc2)cc1 [Example 10, 2-(4-Fluorobenzyl)-5-(4-methylsulfonylphenyl)-6-(4-fluorophenyl)-3(2H)-pyridazinone] | 150 to 151 °C
CC(c1ccc(F)cc1)n1nc(-c2ccc(F)cc2)c(-c2ccc(S(C)(=O)=O)cc2)cc1=O (stereo not drawn) [Example 12, 2-(4-Fluoro-α-methylbenzyl)-5-(4-methylsulfonylphenyl)-6-(4-fluorophenyl)-3(2H)-pyridazinone] | 185 to 186 °C
CS(=O)(=O)c1ccc(-c2cc(=O)n(Cc3ccccc3)nc2-c2ccc(F)cc2)cc1 [Example 7, 2-Benzyl-5-(4-methylsulfonylphenyl)-6-(4-fluorophenyl)-3(2H)-pyridazinone] | 172 to 174 °C
CS(=O)(=O)c1ccc(-c2cc(=O)n(C3CCCC3)nc2-c2ccc(F)cc2)cc1 [Example 25, 2-Cyclopentyl-5-(4-methylsulfonylphenyl)-6-(4-fluorophenyl)-3(2H)-pyridazinone] | 191 to 192 °C
CS(=O)(=O)c1ccc(-c2cc(=O)n(CC(=O)c3ccccc3)nc2-c2ccc(F)cc2)cc1 [Example 16, 2-Phenacyl-5-(4-methylsulfonylphenyl)-6-(4-fluorophenyl)-3(2H)-pyridazinone] | 178 to 180 °C
CS(=O)(=O)c1ccc(-c2cc(=O)n(CC3CCCC3)nc2-c2ccc(F)cc2)cc1 [Example 24, 2-Cyclopentylmethyl-5-(4-methylsulfonylphenyl)-6-(4-fluorophenyl)-3(2H)-pyridazinone] | 76 to 77 °C
CS(=O)(=O)c1ccc(-c2cc(=O)n(C3CCCCC3)nc2-c2ccc(F)cc2)cc1 [Example 18, 2-Cyclohexyl-5-(4-methylsulfonylphenyl)-6-(4-fluorophenyl)-3(2H)-pyridazinone] | 86 to 90 °C
CC(C)=CCn1nc(-c2ccc(F)cc2)c(-c2ccc(S(C)(=O)=O)cc2)cc1=O [Example 21] | 71 to 72 °C
CS(=O)(=O)c1ccc(-c2cc(=O)n(CC3CC3)nc2-c2ccc(F)cc2)cc1 [Example 23, 2-(Cyclopropylmethyl)-5-(4-methylsulfonylphenyl)-6-(4-fluorophenyl)-3(2H)-pyridazinone] | 130 to 132 °C
CCCCCn1nc(-c2ccc(F)cc2)c(-c2ccc(S(C)(=O)=O)cc2)cc1=O [Example 14, 2-(n-Pentyl)-5-(4-methylsulfonylphenyl)-6-(4-fluorophenyl)-3(2H)-pyridazinone] | 65 to 67 °C
CC#CCn1nc(-c2ccc(F)cc2)c(-c2ccc(S(C)(=O)=O)cc2)cc1=O [Example 19, 2-(2-Butyn-1-yl)-5-(4-methylsulfonylphenyl)-6-(4-fluorophenyl)-3(2H)-pyridazinone] | 81 to 82 °C
Cn1nc(-c2ccc(F)cc2)c(-c2ccc(S(C)(=O)=O)cc2)cc1=O [Example 8, 2-Methyl-5-(4-methylsulfonylphenyl)-6-(4-fluorophenyl)-3(2H)-pyridazinone] | 181 to 182 °C
